Data on seven compounds can be found in ChEMBL document CHEMBL5375971, “Structure-Interaction Relationship of Polymyxins with Lung Surfactant” (2023).

What all share (conditions): dose 0.25-4 mg/L
The subject of test [1] is Pseudomonas aeruginosa. In words: Antibacterial activity against Pseudomonas aeruginosa ATCC 27853 assessed as fold increase in MIC at 0.25 to 4 mg/L in presence of lung surfactant by broth microdilution assay. The format is functional. Background: Dilution methods test growth across graded concentrations, often in twofold steps.
The subject of test [2] is Klebsiella pneumoniae. The test can be described thus: Antibacterial activity against Klebsiella pneumoniae FADDI-KP065 assessed as fold increase in MIC at 0.25 to 4 mg/L in presence of lung surfactant by broth microdilution assay. The format is functional.
The test system of test [3] is Acinetobacter baumannii. The test can be described thus: Antibacterial activity against Acinetobacter baumannii FADDI-AB030 assessed as fold increase in MIC at 0.25 to 4 mg/L in presence of lung surfactant by broth microdilution assay. The format is functional.
The test system of test [4] is Pseudomonas aeruginosa. In words: Antibacterial activity against Pseudomonas aeruginosa ATCC 27853 assessed as decrease in bacterial growth at 0.25 to 4 mg/L in presence of lung surfactant by broth microdilution assay. Type of test: functional, organism-based.
Test [5] has as its system Klebsiella pneumoniae. In words: Antibacterial activity against Klebsiella pneumoniae FADDI-KP065 assessed as decrease in bacterial growth at 0.25 to 4 mg/L in presence of lung surfactant by broth microdilution assay. Type of test: functional, organism-based.
In test [6] the test system is Acinetobacter baumannii. The test can be described thus: Antibacterial activity against Acinetobacter baumannii FADDI-AB030 assessed as decrease in bacterial growth at 0.25 to 4 mg/L in presence of lung surfactant by broth microdilution assay. Type of test: functional, organism-based.

Activity calls are given as the source filed them. The calls are words filed in the database; no cut-off is given here. Where a SMILES comes first, the peptide text is derived from it. Bridges are numbered along the chain shown (N, C = ends). [ ]: non-standard residue; d: D form. The star is where a group is joined. X1 = CC[C@H](C)CCCCC(=O)*; dDab = NCC[C@@H](N)C(=O)O; Dab = NCC[C@H](N)C(=O)O

`CCCCCCCC[C@@H]1NC(=O)[C@@H](Cc2ccccc2)NC(=O)[C@@H](CCN)NC(=O)[C@@H](NC(=O)[C@H](CCN)NC(=O)[C@@H](NC(=O)[C@H](CCN)NC(=O)CCCCCCC)[C@@H](C)O)CCNC(=O)[C@H]([C@@H](C)O)NC(=O)[C@H](CCN)NC(=O)[C@H](CCN)NC1=O`: the “fold change (FC)” value in the test with Pseudomonas aeruginosa [1] was found to be 8; in the test with Klebsiella pneumoniae [2], 2; in the test with Acinetobacter baumannii [3], 2.

Take `CCCCCC(=O)N[C@@H](CCN)C(=O)N[C@@H](C(=O)N[C@@H](CCN)C(=O)N[C@H]1CCNC(=O)[C@@H]([C@H](C)O)NC(=O)[C@H](CCN)NC(=O)[C@H](CCN)NC(=O)[C@H]([C@H](C)O)NC(=O)[C@@H](CC(C)C)NC(=O)[C@H](CCN)NC1=O)[C@H](C)O`: the result in the test on Pseudomonas aeruginosa [4], in the test with Klebsiella pneumoniae [5] and in the test on Acinetobacter baumannii [6] was inactive.

Take `CCCCCCCCCC(=O)N[C@@H](CCN)C(=O)N[C@H](C(=O)N[C@@H](CCN)C(=O)N[C@H]1CCNC(=O)[C@H]([C@@H](C)O)NC(=O)[C@H](CCN)NC(=O)[C@H](CCN)NC(=O)[C@H]([C@H](C)O)NC(=O)[C@@H](CC(C)C)NC(=O)[C@H](CCN)NC1=O)[C@@H](C)O`: the result in the test with Pseudomonas aeruginosa [4], with Klebsiella pneumoniae [5] and in the test with Acinetobacter baumannii [6] was Active.

With `CC[C@H](C)CCCCC(=O)N[C@@H](CCN)C(=O)N[C@H](C(=O)N[C@@H](CCN)C(=O)N[C@H]1CCNC(=O)[C@H]([C@@H](C)O)NC(=O)[C@H](CCN)NC(=O)[C@H](CCN)NC(=O)[C@H](CC(C)C)NC(=O)[C@@H](Cc2ccccc2)NC(=O)[C@H](CCN)NC1=O)[C@@H](C)O` (X1-[Dab]T[Dab][Dab][Dab][dF]L[Dab][Dab]T; lactam 4-C), the result in the test on Pseudomonas aeruginosa [4], with Klebsiella pneumoniae [5] and in the test with Acinetobacter baumannii [6] was Active.

In the case of `CC[C@H](C)CCCCC(=O)N[C@@H](CCN)C(=O)N[C@H](C(=O)N[C@@H](CCN)C(=O)N[C@H]1CCNC(=O)[C@H]([C@@H](C)O)NC(=O)[C@H](CCN)NC(=O)[C@H](CCN)NC(=O)[C@H]([C@@H](C)O)NC(=O)[C@@H](CC(C)C)NC(=O)[C@H](CCN)NC1=O)[C@@H](C)O` (X1-[Dab]T[Dab][Dab][Dab][dL]T[Dab][Dab]T; lactam 4-C), the result with Pseudomonas aeruginosa [4], with Klebsiella pneumoniae [5] and in the test with Acinetobacter baumannii [6] was Active. The “fold change (FC)” value with Pseudomonas aeruginosa [1] was 2; in the test with Klebsiella pneumoniae [2], 4; with Acinetobacter baumannii [3] it was 4.

With `CC[C@H](C)CCCCC(=O)N[C@@H](CCN)C(=O)N[C@H](C(=O)N[C@H](CCN)C(=O)N[C@H]1CCNC(=O)[C@H]([C@@H](C)O)NC(=O)[C@H](CCN)NC(=O)[C@H](CCN)NC(=O)[C@H]([C@@H](C)O)NC(=O)[C@@H](CC(C)C)NC(=O)[C@H](CCN)NC1=O)[C@@H](C)O` (X1-[Dab]T[dDab][Dab][Dab][dL]T[Dab][Dab]T; lactam 4-C), the result in the test on Pseudomonas aeruginosa [4], in the test on Klebsiella pneumoniae [5] and in the test with Acinetobacter baumannii [6] was Active. The “fold change (FC)” value with Pseudomonas aeruginosa [1] is 2; with Klebsiella pneumoniae [2], 8; in the test with Acinetobacter baumannii [3], 4.

For COLISTIN, the outcome in the test with Pseudomonas aeruginosa [4], with Klebsiella pneumoniae [5] and with Acinetobacter baumannii [6] was Active. Besides, the fold change (FC) in the test on Pseudomonas aeruginosa [1] turned out to be 4; with Klebsiella pneumoniae [2], 2; in the test with Acinetobacter baumannii [3] it was 4.
